In patent US11566047B2, “Peptide or pharmaceutically acceptable salt thereof, or prodrug thereof” (TOKYO UNIVERSITY OF PHARMACY & LIFE SCIENCES, priority 2016, dated 2023):
Ends that are not written are not given here. Peptide text beside a SMILES is read from it. * marks the point of attachment. X1 = COCCOCCOCCOCCC(=O)*; R111 = not defined here; Ahx = NCCCCCC(=O)O

Key:
[1] = test system: anterior tibial muscles of mdx mice; assay: Influence on anterior tibial muscles of Duchenne muscular dystrophy model mdx mice (muscle weight); assay type: in vivo; details: mdx male mice aged 5 weeks; 40 μL of 0.75 mM intramuscular, again after 2 weeks; necropsy after further 4 weeks; vs saline leg; average of three mice
Experimental: Regarding PDM-46 prepared in Synthesis Example 18, evaluation was performed by the following method in order to check the muscle mass increasing effect in vivo.
PDM-46 was dissolved in saline to become 0.75 mM. 40 μL of PDM-46 was intramuscularly administered into the left leg anterior tibial muscles of anesthetized mdx male mice aged 5 weeks (purchased from CLEA Japan, Inc.) (as a control, 40 μL of saline was intramuscularly administered into the right leg anterior tibial muscles). After 2 weeks, the same amount of PDM-46 was administered to the same site again. After further 4 weeks, the mice were subjected to necropsy, the anterior tibial muscles were excised from the both legs, and the weight thereof was measured.

myostatin = biological target: T1, myostatin (Homo sapiens, UniProt O14793); assay: cell-based; details: for remaining activity at 0.3 µM: HEK293, read-out: luciferase activity (relative; myostatin without test sample = 100%)
T1 sequence (O14793 267-375): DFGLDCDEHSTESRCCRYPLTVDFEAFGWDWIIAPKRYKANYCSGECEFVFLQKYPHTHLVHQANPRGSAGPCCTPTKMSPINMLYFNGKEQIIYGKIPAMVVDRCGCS
Experimental: Human embryo kidney cell HEK293 cells were cultured in a 5% (v/v) CO2 incubator set to 37° C. using DMEM (NACALAI TESQUE, INC.) including a 10% (v/v) fetal bovine serum (FBS) added with a 1% (v/v) non-essential amino acid (Wako Pure Chemical Corporation).
(2) In Vitro Reporter Assay
HEK293 cells were seeded on a D-Lys-corted 96-well transparent plate (Thermo Fisher Scientific Inc.) in an amount of 2.0×10^4 cells (100 μL DMEM+10% (v/v) FBS) per well and were cultured for 24 hours.
The cells were cultured at 37° C. for 24 hours, and after the cell culture solution was replaced with serum-free DMEM, the cells were cultured for 8 hours. Incidentally, pGL4.48 [luc2P/SBE/Hygro] includes firefly luciferase reporter gene luc2P under Smad binding region (SBE) control, and when a signaling pathway by the myostatin is activated, intracellular Smad forms a complex, and the complex is bonded to SBE to promote transcription of luc2P.
The peptide as a test sample was suspended as a stock solution using DMSO to become 10 mM and stored at −30° C. Before 1 hour from addition to the culture medium, the peptide and a myostatin (Merck Millipore Corp.) were suspended with serum-free DMEM and left to stand still at room temperature (25° C.) for 20 minutes. Subsequently, a peptide with an arbitrary final concentration (0.3 to […]) and 8 ng/mL of myostatin were added to the culture medium, and then culturing was performed for 4 hours. After culturing for 4 hours, the culture solution was removed by an aspirator and the cells were washed with 1×PBS. Thereafter, Passive Lysis buffer (Promega Corporation) was added in an amount of 50 μL per well to dissolve the cells. The dissolving solution was subjected to centrifugal separation at 4500 rpm for 6 minutes under the condition of 4° C. After 20 μL of supernatant subjected to centrifugal separation was transferred to a white 96-well plate (Costar), 50 μL of Luciferase Assay Reagent (Promega Corporation) was then added, emission was detected by Luminoskan Ascent (Thermo Fisher Scientific Inc.), and a firefly luciferase activity was measured. Further, after 50 μL of Stop & Glo Buffer (Promega Corporation) was added, emission was detected by Luminoskan Ascent, and a Renilla luciferase activity was measured to be regarded as an internal control.

mdx mice = assay: Influence on serum creatine kinase level of mdx mice; assay type: in vivo; details: mdx male mice; 40 μL of 0.75 mM intramuscular into calf muscles of both legs on day 0 and day 14
Experimental: Evaluation was performed by the following method in order to check the effect of nPDM-55/E31R prepared in Synthesis Example 36 to a serum creatine kinase (CK) value in mdx mice. Incidentally, 3d prepared in Synthesis Example 75 was used as Comparative Example.
nPDM-55/E31R and 3d were dissolved in saline to become 0.75 mM. 40 μL of nPDM-55/E31R was intramuscularly administered into the calf muscles of both legs of anesthetized mdx mice aged 5 weeks (all mice were males, purchased from CLEA Japan, Inc.). After 2 weeks, the same amount of nPDM-55/E31R was administered to the same site again. Serum samples were collected immediately before administration of nPDM-55/E31R and 3d (day 0, day 14) and further also collected after 4 weeks (day 42). […] From those results, it was shown that nPDM-55/E31R has an effect of continually maintaining the CK level in blood to be low as compared to 3d.

[2] = test system: calf muscles of mdx mice and C57BL/6 mice; assay: Influence on calf muscles of mdx mice and C57BL/6 mice (cross-sectional areas of muscle fibers); assay type: in vivo
Experimental: Evaluation was performed by the following method in order to check the muscle mass increasing effect in vivo of nPDM-55/E31R prepared in Synthesis Example 36.
nPDM-55/E31R was dissolved in saline to become 0.75 mM. 40 μL of nPDM-55/E31R was intramuscularly administered into the calf muscles of both legs of anesthetized mdx mice and C57BL/6 mice aged 5 weeks (all mice were males, purchased from CLEA Japan, Inc.) (40 μL of saline was intramuscularly administered into the calf muscles of both legs of control mice). After 2 weeks, the same amount of nPDM-55/E31R was administered to the same site again. After further 4 weeks, the mice were subjected to necropsy, the calf muscles were excised from the both legs and transverse frozen sections (6 μm) were formed using cryostat. Regarding three sections stained with Hematoxylin-Eosin and randomly selected, cross-sectional areas of muscle fibers (200 fibers) were analyzed by a fluorescence microscope BZX700 (KEYENCE CORPORATION).

R^111-WYIESIKIQIISKLRL-NH2 (R111-WYIESIKIQIISKLRL-NH2; reading uncertain; also: printed as R^111-WYIESIKIQIISKLRL-NH2) [PDM-46, R^111 = group of Formula (4), drawing 8]
increase of muscle mass of anterior tibial muscles in terms of weight [1]: about 13%

CC[C@H](C)[C@H](NC(=O)[C@H](Cc1ccc(O)cc1)NC(=O)[C@H](Cc1c[nH]c2ccccc12)NC(=O)CCCCCNC(=O)CCOCCOCCOCCOC)C(=O)N[C@@H](CCC(=O)O)C(=O)N[C@@H](Cc1c[nH]c2ccccc12)C(=O)N[C@H](C(=O)N[C@@H](CCCCN)C(=O)N[C@H](C(=O)N[C@@H](CCC(N)=O)C(=O)N[C@H](C(=O)N[C@@H](Cc1c[nH]c2ccccc12)C(=O)N[C@@H](CO)C(=O)N[C@@H](CCCCN)C(=O)N[C@@H](CC(C)C)C(=O)N[C@@H](CCCNC(=N)N)C(=O)N[C@@H](CC(C)C)C(N)=O)[C@@H](C)CC)[C@@H](C)CC)[C@@H](C)CC [PDM-55, R^111-WYIEWIKIQIWSKLRL-NH2] ({X1-Ahx}-WYIEWIKIQIWSKLRL-NH2)
remaining activity at 0.3 µM (myostatin): ≤ 60%

SRIEAIKIQILSKLRL-NH2 (listed as Mus musculus) [mMPS(28-43), reference compound]
myostatin inhibitory activity (myostatin; final concentration of 1 μM): a high myostatin inhibitory activity was not recognized | myostatin inhibitory activity (myostatin; final concentration of 10 μM): the myostatin inhibitory activity was not recognized

CC[C@H](C)[C@H](NC(=O)[C@H](CCC(N)=O)NC(=O)[C@@H](NC(=O)[C@H](CCCCN)NC(=O)[C@@H](NC(=O)[C@H](Cc1c[nH]c2ccccc12)NC(=O)[C@H](CCCNC(=N)N)NC(=O)[C@@H](NC(=O)[C@H](Cc1ccc(O)cc1)NC(=O)[C@@H](N)Cc1c[nH]c2ccccc12)[C@@H](C)CC)[C@@H](C)CC)[C@@H](C)CC)C(=O)N[C@@H](Cc1c[nH]c2ccccc12)C(=O)N[C@@H](CO)C(=O)N[C@@H](CCCCN)C(=O)N[C@@H](CC(C)C)C(=O)N[C@@H](CCCNC(=N)N)C(=O)N[C@@H](CC(C)C)C(N)=O [nPDM-55/E31R, WYIRWIKIQIWSKLRL-NH2] (H-WYIRWIKIQIWSKLRL-NH2)
serum creatine kinase (CK) level on day 14 versus day 0 (mdx mice): clearly lower value | serum creatine kinase (CK) level on day 42 (mdx mice): clearly lower value | remaining activity at 0.3 µM (myostatin): ≤ 60% | cross-sectional areas of muscle fibers of calf muscles ([2]; mdx and C57BL/6 male mice, 40 μL of 0.75 mM intramuscular into both legs, again after 2 weeks, after further 4 weeks, vs saline mice): increased | nature of the obtained muscular hypertrophy (analysis images) ([2]; mdx and C57BL/6 mice, Hematoxylin-Eosin stained sections): not inflammatory

CC[C@H](C)[C@H](NC(=O)[C@H](CCC(N)=O)NC(=O)[C@@H](NC(=O)[C@H](CCCCN)NC(=O)[C@@H](NC(=O)[C@H](Cc1c[nH]c2ccccc12)NC(=O)[C@H](CCC(N)=O)NC(=O)[C@@H](NC(=O)[C@H](Cc1ccc(O)cc1)NC(=O)[C@@H](N)Cc1c[nH]c2ccccc12)[C@@H](C)CC)[C@@H](C)CC)[C@@H](C)CC)C(=O)N[C@@H](Cc1c[nH]c2ccccc12)C(=O)N[C@@H](CO)C(=O)N[C@@H](CCCCN)C(=O)N[C@@H](CC(C)C)C(=O)N[C@@H](CCCNC(=N)N)C(=O)N[C@@H](CC(C)C)C(N)=O [nPDM-55/E31Q, WYIQWIKIQIWSKLRL-NH2] (H-WYIQWIKIQIWSKLRL-NH2)
remaining activity at 0.3 µM (myostatin): ≤ 60%
